Results from ChEMBL document CHEMBL1201862, “PubChem BioAssay data set” (2004).
Values joined by “and” are separate entries in the source; they are usually repeats but may differ in a detail not shown here. Equal entries are not always repeated.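 Interpolation was linear, between the two tested concentrations surrounding the appropriate level; five concentrations were tested over 48 hours in 96-well plates. GI50 is the concentration that inhibits growth by half.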 Active and inactive are the calls of the source. Rule as the data show it: active = GI50 up to about 1.1 µM and inactive = higher.

Legend:
Assay in all cases: NCI-60 cell line screen, 48 h
[1] = system: CAKI-1
[2] = system: HOP-92
[3] = system: OVCAR-4
[4] = system: UACC-62
[5] = system: MDA-N
[6] = system: MDA-MB-231
[7] = system: NCI-H226
[8] = system: IGROV-1
[9] = system: SK-MEL-5
[10] = system: RXF 393
[11] = system: MCF7
[12] = system: 786-0
[13] = system: SN12C
[14] = system: TK-10
[15] = system: Malme-3M
[16] = system: LOX IMVI
[17] = system: MOLT-4
[18] = system: CCRF-CEM
[19] = system: A498
[20] = system: SK-MEL-2
[21] = system: U-251
[22] = system: HOP-62
[23] = system: Hs-578T
[24] = system: A549
[25] = system: COLO 205
[26] = system: KM12
[27] = system: SW-620
[28] = system: UO-31
[29] = system: HCC 2998
[30] = system: SNB-19
[31] = system: UACC-257
[32] = system: RPMI-8226
[33] = system: EKVX
[34] = system: DU-145
[35] = system: SF-268
[36] = system: SNB-75
[37] = system: OVCAR-8
[38] = system: NCI-H460
[39] = system: ACHN
[40] = system: OVCAR-5
[41] = system: K562
[42] = system: SR
[43] = system: T47D
[44] = system: HL-60
[45] = system: MDA-MB-435
[46] = system: NCI-H23
[47] = system: NCI-H522
[48] = system: SK-MEL-28
[49] = system: HCT-116
[50] = system: SF-295
[51] = system: PC-3
[52] = system: NCI/ADR-RES
[53] = system: HT-29
[54] = system: HCT-15
[55] = system: SK-OV-3
[56] = system: SF-539
[57] = system: M14
[58] = system: OVCAR-3

For `CC(=O)OCC1OC(n2c(=S)n(-c3ccccc3)c(=O)c3ccccc32)C(OC(C)=O)C(OC(C)=O)C1OC(C)=O` (stereo unspecified), the GI50 [1] was 91.8 µM (inactive) and 83.4 µM (inactive), the GI50 [2] was 47.8 µM (inactive) and 33.6 µM (inactive) and the GI50 [3] was 55.8 µM (inactive) and 48.1 µM (inactive).
In the case of `Nc1nc(N)c2ncn(-c3ccccc3)c2n1`, the GI50 [4] is reported as 41.5 µM (inactive), the GI50 [5] is reported as > 100 µM (inactive) and the GI50 [6] is reported as 64.9 µM (inactive). The GI50 [1] was 66.2 µM (inactive), the GI50 [7] was > 100 µM (inactive) and the GI50 [8] was 47.2 µM (inactive). For the same molecule, the GI50 [9] was > 100 µM (inactive), the GI50 [10] was 44.3 µM (inactive) and the GI50 [11] was 69.7 µM (inactive). The GI50 [12] was > 100 µM (inactive), the GI50 [13] was 93.3 µM (inactive) and the GI50 [14] was 54.2 µM (inactive). The GI50 [15] was > 100 µM (inactive), the GI50 [16] was > 100 µM (inactive) and the GI50 [17] was 38.7 µM (inactive). The GI50 [18] was 24.9 µM (inactive), the GI50 [19] was 60.4 µM (inactive) and the GI50 [20] was 73.3 µM (inactive). For the same molecule, the GI50 [21] was > 100 µM (inactive), the GI50 [22] was > 100 µM (inactive) and the GI50 [23] was 71 µM (inactive). The GI50 [24] was 43.6 µM (inactive), the GI50 [25] was > 100 µM (inactive) and the GI50 [26] was 26.4 µM (inactive). The GI50 [27] was > 100 µM (inactive), the GI50 [28] was 36.9 µM (inactive) and the GI50 [29] was 56.1 µM (inactive). The GI50 [30] was > 100 µM (inactive), the GI50 [31] was > 100 µM (inactive) and the GI50 [32] was > 100 µM (inactive).
For `COc1ccc(-c2cc(-c3ccccc3)c(C#N)c(=O)n2C2OC(COC(C)=O)C(OC(C)=O)C(OC(C)=O)C2OC(C)=O)cc1` (stereo unspecified), the GI50 [28] was 67.6 µM (inactive) and 42.4 µM (inactive).
In the case of `C/N=C(\Nc1cccc(C(F)(F)F)c1)SCc1ccc(N=C=S)cc1`, the GI50 [33] is reported as 20.2 µM (inactive), the GI50 [4] is reported as 11.8 µM (inactive) and the GI50 [5] is reported as 14.8 µM (inactive). For the same molecule, the GI50 [34] was 17.4 µM (inactive), the GI50 [6] was 11.2 µM (inactive) and the GI50 [1] was 16.5 µM (inactive). The GI50 [7] was 19.8 µM (inactive), the GI50 [8] was 16.4 µM (inactive) and the GI50 [35] was 31.2 µM (inactive). For the same molecule, the GI50 [36] was 14.2 µM (inactive), the GI50 [2] was 14.7 µM (inactive) and the GI50 [37] was 19.6 µM (inactive). For the same molecule, the GI50 [38] was 12.9 µM (inactive), the GI50 [9] was 16.3 µM (inactive) and the GI50 [10] was 13.4 µM (inactive). For the same molecule, the GI50 [12] was 16.4 µM (inactive), the GI50 [13] was 13.8 µM (inactive) and the GI50 [14] was 11.4 µM (inactive). The GI50 [15] was 14.7 µM (inactive), the GI50 [39] was 15.2 µM (inactive) and the GI50 [16] was 4.66 µM (inactive). The GI50 [40] was 16.5 µM (inactive), the GI50 [17] was 11.5 µM (inactive) and the GI50 [3] was 13.3 µM (inactive). For the same molecule, the GI50 [41] was 20 µM (inactive), the GI50 [42] was 4.34 µM (inactive) and the GI50 [43] was 13.8 µM (inactive). The GI50 [18] was 23.4 µM (inactive), the GI50 [44] was 40.6 µM (inactive) and the GI50 [45] was 13.8 µM (inactive). For the same molecule, the GI50 [46] was 16.3 µM (inactive), the GI50 [19] was 19.9 µM (inactive) and the GI50 [20] was 12.3 µM (inactive). For the same molecule, the GI50 [21] was 15.8 µM (inactive), the GI50 [22] was 17.5 µM (inactive) and the GI50 [47] was 10.4 µM (inactive). The GI50 [23] was 14.7 µM (inactive), the GI50 [48] was 21 µM (inactive) and the GI50 [24] was 18.1 µM (inactive). For the same molecule, the GI50 [49] was 15.5 µM (inactive), the GI50 [50] was 16 µM (inactive) and the GI50 [25] was 16.6 µM (inactive). The GI50 [26] was 15.4 µM (inactive), the GI50 [51] was 15.9 µM (inactive) and the GI50 [27] was 20.2 µM (inactive). For the same molecule, the GI50 [52] was 22.1 µM (inactive), the GI50 [53] was 15.6 µM (inactive) and the GI50 [28] was 15.1 µM (inactive). The GI50 [54] was 7.14 µM, the GI50 [29] was 15.6 µM (inactive) and the GI50 [30] was 14.9 µM (inactive). For the same molecule, the GI50 [31] was 14.3 µM (inactive), the GI50 [55] was 20.2 µM (inactive) and the GI50 [56] was 17.5 µM (inactive). For the same molecule, the GI50 [32] was 5.92 µM (inactive).
`CN(NC(=O)/C(=C\c1ccco1)NC(=O)c1ccccc1)c1cn[nH]c(=O)c1Cl` was tested, and the GI50 [33] was > 100 µM (inactive), the GI50 [4] was > 100 µM (inactive) and the GI50 [34] was > 100 µM (inactive). The GI50 [6] was > 100 µM (inactive), the GI50 [1] was > 100 µM (inactive) and the GI50 [7] was 45.6 µM (inactive). For the same molecule, the GI50 [8] was 49.3 µM (inactive), the GI50 [35] was > 100 µM (inactive) and the GI50 [36] was 23.4 µM (inactive). The GI50 [2] was > 100 µM (inactive), the GI50 [37] was 42.7 µM (inactive) and the GI50 [38] was > 100 µM (inactive). The GI50 [9] was 29.7 µM (inactive), the GI50 [10] was > 100 µM (inactive) and the GI50 [11] was > 100 µM (inactive). The GI50 [12] was 41.3 µM (inactive), the GI50 [13] was 53.2 µM (inactive) and the GI50 [14] was > 100 µM (inactive). The GI50 [15] was 39.3 µM (inactive), the GI50 [39] was > 100 µM (inactive) and the GI50 [16] was 23.2 µM (inactive). For the same molecule, the GI50 [40] was > 100 µM (inactive), the GI50 [17] was 29.6 µM (inactive) and the GI50 [3] was > 100 µM (inactive). The GI50 [41] was 60.1 µM (inactive), the GI50 [42] was 29.9 µM (inactive) and the GI50 [18] was 24.6 µM (inactive). The GI50 [45] was > 100 µM (inactive), the GI50 [46] was > 100 µM (inactive) and the GI50 [20] was 80.5 µM (inactive). The GI50 [21] was 79.4 µM (inactive), the GI50 [22] was 64.3 µM (inactive) and the GI50 [47] was 28.1 µM (inactive). For the same molecule, the GI50 [23] was 52.1 µM (inactive), the GI50 [48] was 36.6 µM (inactive) and the GI50 [24] was > 100 µM (inactive). For the same molecule, the GI50 [49] was 51.5 µM (inactive), the GI50 [50] was 64.4 µM (inactive) and the GI50 [25] was > 100 µM (inactive). The GI50 [26] was 40.6 µM (inactive), the GI50 [51] was > 100 µM (inactive) and the GI50 [57] was 66.2 µM (inactive). The GI50 [27] was 45.9 µM (inactive), the GI50 [52] was 50.2 µM (inactive) and the GI50 [53] was 58.6 µM (inactive). For the same molecule, the GI50 [58] was 27.9 µM (inactive), the GI50 [28] was > 100 µM (inactive) and the GI50 [54] was 57.3 µM. For the same molecule, the GI50 [30] was 97.9 µM (inactive), the GI50 [31] was 48.8 µM (inactive) and the GI50 [55] was > 100 µM (inactive). The GI50 [56] was 24.9 µM (inactive) and the GI50 [32] was 21.1 µM (inactive).
With `CC(=O)OC(C)(C)/C(C)=C/C(=O)O[C@H]1C(=O)O[C@@H]2C[C@H]3[C@H](C)C(=O)C(O[C@@H]4O[C@H](CO)[C@@H](O)[C@H](O)[C@H]4O)=C[C@]3(C)[C@H]3[C@@H](O)[C@H](O)[C@@]4(C(=O)O)OC[C@]32[C@@H]14` [Bruceoside-F] the GI50 [9] was > 10 µM (inactive), the GI50 [16] was 81.3 µM (inactive) and the GI50 [21] was 87.3 µM (inactive). The GI50 [48] was 79.3 µM (inactive).
